From US20230107642A1 (Erasca, Inc., priority 2020, published 2023)

Target: T1, Cys12 of the KRAS 4B G12C protein (Homo sapiens, UniProt P01116, G12C)
T1 construct: This protein contained 188 amino acids in total, including an N-terminal 6-Histidine tag; made in house; host or cells: E. coli BL21
Assay: In vitro covalent adduct formation (CAF) assay, LC-MS intact mass
Type: binding
Conditions: for % CAF 10 uM @ 60 min: 10 uM compound; for CAF (% after 1 hour): 10 μM compound
Procedure, shortened: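 GDP-loaded (>95%) His-TEV-tagged KRAS 4B G12C (residues 1–169), 5 μM in TBS pH 7.4, incubated with 10 μM compound (4% DMSO) at 22° C for one hour. Intact-protein LC-MS gave free:adduct ratios, reported as percent protein modified; duplicate runs.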

| % CAF 10 uM @ 60 min (60 min) [%] | Structure (SMILES) | other results |
| --- | --- | --- |
| 64.8 | C=CC(=O)N1C[C@H](C)N(c2nc(=O)n3c4c(c(-c5ccc(F)cc5)c(C(F)(F)F)cc24)SC[C@@H]3CN2C[C@@H]3C[C@H]2CO3)C[C@H]1C [Example 1351, (S)-3-(((1S,4S)-2-oxa-5-azabicyclo[2.2.1]heptan-5-yl)methyl)-7-((2S,5R)-4-acryloyl-2,5-dimethylpiperazin-1-yl)-10-(4-fluorophenyl)-9-(trifluoromethyl)-2,3-dihydro-5H-[1,4]thiazino[2,3,4-ij]quinazolin-5-one] |  |
| 95.3 | C=CC(=O)N1C[C@H](C)N(c2nc(=O)n3c4c(c(-c5cccc6cnn(C)c56)c(C(F)(F)F)cc24)SC[C@@H]3CN2CCN(C3CC3)CC2)C[C@H]1C (atropisomer, axis not shown) [Example 1388, (3S,10S)-7-((2S,5R)-4-acryloyl-2,5-dimethylpiperazin-1-yl)-3-((4-cyclopropylpiperazin-1-yl)methyl)-10-(1-methyl-1H-indazol-7-yl)-9-(trifluoromethyl)-2,3-dihydro-5H-[1,4]thiazino[2,3,4-ij]quinazolin-5-one] |  |
| 78.2 | C=CC(=O)N1CCN(c2nc(=O)n3c4c(c(-c5cc(Cl)c(F)cc5F)c(C(F)(F)F)cc24)SCC2(COC2)C3)CC1 (atropisomer, axis not shown) [Example 1397, (S)-8′-(4-acryloylpiperazin-1-yl)-11′-(5-chloro-2,4-difluorophenyl)-10′-(trifluoromethyl)-2′H,4′H,6′H-spiro[oxetane-3,3′-[1,4]thiazepino[2,3,4-ij]quinazolin]-6′-one] |  |
|  | C=CC(=O)N1[C@H](C)CN(c2nc(=O)n3c4c(c(-c5ccc(F)c(Cl)c5)c(C(F)(F)F)cc24)SC[C@@H](OCCN(C)C)C3)C[C@@H]1C [Example 1035, (S)-8-((3S,5R)-4-acryloyl-3,5-dimethylpiperazin-1-yl)-11-(3-chloro-4-fluorophenyl)-3-(2-(dimethylamino)ethoxy)-10-(trifluoromethyl)-3,4-dihydro-2H,6H-[1,4]thiazepino[2,3,4-ij]quinazolin-6-one] | CAF (% binding after 60 min): 97% |
| 89.4 | C=CC(=O)N1[C@H](C)CN(c2nc(=O)n3c4c(c(-c5cc(Cl)c(F)cc5F)c(C(F)(F)F)cc24)SC[C@@H]3CN2CCN(CC)CC2)C[C@@H]1C (atropisomer, axis not shown) [Example 1340, (3S,10S)-7-((3S,5R)-4-acryloyl-3,5-dimethylpiperazin-1-yl)-10-(5-chloro-2,4-difluorophenyl)-3-((4-ethylpiperazin-1-yl)methyl)-9-(trifluoromethyl)-2,3-dihydro-5H-[1,4]thiazino[2,3,4-ij]quinazolin-5-one] |  |
| 85.4 | C=CC(=O)N1[C@H](C)CN(c2nc(=O)n3c4c(c(-c5cccc6cnn(C)c56)c(C(F)(F)F)cc24)SC[C@@H]3CN2CCN(C3CC3)CC2)C[C@@H]1C (atropisomer, axis not shown) [Example 1412, (3S,10S)-7-((3S,5R)-4-acryloyl-3,5-dimethylpiperazin-1-yl)-3-((4-cyclopropylpiperazin-1-yl)methyl)-10-(1-methyl-1H-indazol-7-yl)-9-(trifluoromethyl)-2,3-dihydro-5H-[1,4]thiazino[2,3,4-ij]quinazolin-5-one] |  |
|  | C=CC(=O)N1[C@H](C)CN(c2nc(=O)n3c4c(c(-c5ccc(F)cc5F)c(C(F)(F)F)cc24)SC[C@H](N(C)C)C3)C[C@@H]1C [Example 1001, (3R)-8-((3S,5R)-4-acryloyl-3,5-dimethylpiperazin-1-yl)-11-(2,4-difluorophenyl)-3-(dimethylamino)-10-(trifluoromethyl)-3,4-dihydro-2H,6H-[1,4]thiazepino[2,3,4-ij]quinazolin-6-one] | CAF (% binding after 60 min): 84% |
|  | C=CC(=O)N1[C@H](C)CN(c2nc(=O)n3c4c(c(-c5cccc6cnn(C)c56)c(C(F)(F)F)cc24)SC[C@@H]3COC)C[C@@H]1C (atropisomer, axis not shown) [Example 1130, (3S,10S)-7-((3S,5R)-4-acryloyl-3,5-dimethylpiperazin-1-yl)-3-(methoxymethyl)-10-(1-methyl-1H-indazol-7-yl)-9-(trifluoromethyl)-2,3-dihydro-5H-[1,4]thiazino [2,3,4-ij]quinazolin-5-one] | % CAF 10 uM @ 60 min (60 min incubation): 95.6% |
|  | C=CC(=O)N1[C@H](C)CN(c2nc(=O)n3c4c(c(-c5cc(Cl)c(F)cc5F)c(C(F)(F)F)cc24)SC[C@@H](Oc2ccncc2)C3)C[C@@H]1C [Example 1234, (3S)-8-((3S,5R)-4-acryloyl-3,5-dimethylpiperazin-1-yl)-11-(5-chloro-2,4-difluorophenyl)-3-(pyridin-4-yloxy)-10-(trifluoromethyl)-3,4-dihydro-2H,6H-[1,4]thiazepino[2,3,4-ij]quinazolin-6-one] | CAF (% after 1 hour): 94% |
| 85.5 | C=CC(=O)N1[C@H](C)CN(c2nc(=O)n3c4c(c(-c5ccc(F)c(Cl)c5)c(C(F)(F)F)cc24)SC[C@H](N2CCOCC2)C3)C[C@@H]1C [Example 1336, (R)-8-((3S,5R)-4-acryloyl-3,5-dimethylpiperazin-1-yl)-11-(3-chloro-4-fluorophenyl)-3-morpholino-10-(trifluoromethyl)-3,4-dihydro-2H,6H-[1,4]thiazepino[2,3-4-ij]quinazolin-6-one] |  |
|  | C=CC(=O)N1[C@H](C)CN(c2nc(=O)n3c4c(c(-c5ccc(F)cc5)c(C(F)(F)F)cc24)SC[C@@H](OCCN(C)C)C3)C[C@@H]1C [Example 1033, (S)-8-((3S,5R)-4-acryloyl-3,5-dimethylpiperazin-1-yl)-3-(2-(dimethylamino)ethoxy)-11-(4-fluorophenyl)-10-(trifluoromethyl)-3,4-dihydro-2H,6H-[1,4]thiazepino[2,3,4-ij]quinazolin-6-one] | CAF (% binding after 60 min): 96% |
| 70 | [2H]C([2H])=C([2H])C(=O)N1C[C@H](C)N(c2nc(=O)n3c4c(c(-c5cc(Cl)c(F)cc5F)c(C(F)(F)F)cc24)SCC2(COC2)C3)C[C@H]1C (atropisomer, axis not shown) [Example 1433, (S)-8′-((2S,5R)-4-(Acryloyl-d3)-2,5-dimethylpiperazin-1-yl)-11′-(5-chloro-2,4-difluorophenyl)-10′-(trifluoromethyl)-2′H,4′H,6′H-spiro[oxetane-3,3′-[1,4]thiazepino[2,3,4-ij]quinazolin]-6′-one] |  |
| 96.1 | C=CC(=O)N1C[C@H](C)N(c2nc(=O)n3c4c(c(-c5ccc(F)cc5F)c(C(F)(F)F)cc24)SC[C@@H]3CN2C[C@@H]3C[C@H]2CO3)C[C@H]1C (atropisomer, axis not shown) [Example 1323, (3S,10R)-3-(((1S,4S)-2-oxa-5-azabicyclo[2.2.1]heptan-5-yl)methyl)-7-((2S,5R)-4-acryloyl-2,5-dimethylpiperazin-1-yl)-10-(2,4-difluorophenyl)-9-(trifluoromethyl)-2,3-dihydro-5H-[1,4]thiazino[2,3,4-ij]quinazolin-5-one] |  |
| 95.8 | C=CC(=O)N1C[C@H](C)N(c2nc(=O)n3c4c(c(-c5ccc(F)cc5F)c(C(F)(F)F)cc24)SC[C@@H]3CN2CCC3(CC2)COC3)C[C@H]1C (atropisomer, axis not shown) [Example 1314, (3S,10S)-3-((2-oxa-7-azaspiro[3.5]nonan-7-yl)methyl)-7-((2S,5R)-4-acryloyl-2,5-dimethylpiperazin-1-yl)-10-(2,4-difluorophenyl)-9-(trifluoromethyl)-2,3-dihydro-5H-[1,4]thiazino[2,3,4-ij]quinazolin-5-one] |  |
|  | C=CC(=O)N1[C@H](C)CN(c2nc(=O)n3c4c(c(-c5cc(Cl)c(F)cc5F)c(C(F)(F)F)cc24)SCC2(CC2)C3)C[C@@H]1C [Example 1237, 8′-((3S,5R)-4-acryloyl-3,5-dimethylpiperazin-1-yl)-11′-(5-chloro-2,4-difluorophenyl)-10′-(trifluoromethyl)-2′H,4′H,6′H-spiro[cyclopropane-1,3′-[1,4]thiazepino[2,3,4-ij]quinazolin]-6′-one] | CAF (% after 1 hour): 90% |
|  | C=CC(=O)N1[C@H](C)CN(c2nc(=O)n3c4c(c(-c5ccc(F)cc5)c(C(F)(F)F)cc24)SC[C@@H](O)C3)C[C@@H]1C [Example 1003, (S)-8-((3S,5R)-4-acryloyl-3,5-dimethylpiperazin-1-yl)-11-(4-fluorophenyl)-3-hydroxy-10-(trifluoromethyl)-3,4-dihydro-2H,6H-[1,4]thiazepino[2,3,4-ij]quinazolin-6-one] | CAF (% binding after 60 min): 95% |
| 72 | C=CC(=O)N1[C@H](C)CN(c2nc(=O)n3c4c(c(-c5ccc(F)cc5F)c(C(F)(F)F)cc24)SC[C@@H]3CN2CC[C@H](F)C2)C[C@@H]1C (atropisomer, axis not shown) [Example 1428, (3S,10S)-7-((3S,5R)-4-acryloyl-3,5-dimethylpiperazin-1-yl)-10-(2,4-difluorophenyl)-3-(((S)-3-fluoropyrrolidin-1-yl)methyl)-9-(trifluoromethyl)-2,3-dihydro-5H-[1,4]thiazino[2,3,4-ij]quinazolin-5-one] |  |
|  | C=CC(=O)N1[C@H](C)CN(c2nc(=O)n3c4c(c(-c5ccc(F)cc5)c(C(F)(F)F)cc24)SC[C@@H](OCC(=O)N(C)C)C3)C[C@@H]1C [Example 1232, 2-(((S)-8-((3S,5R)-4-acryloyl-3,5-dimethylpiperazin-1-yl)-11-(4-fluorophenyl)-6-oxo-10-(trifluoromethyl)-3,4-dihydro-2H,6H-[1,4]thiazepino[2,3,4-ij]quinazolin-3-yl)oxy)-N,N-dimethylacetamide] | CAF (% after 1 hour): 93% |
| 80 | C=CC(=O)N1C[C@H](C)N(c2nc(=O)n3c4c(c(-c5cc(Cl)c(F)cc5F)c(C(F)(F)F)cc24)SC[C@@H]3CN2C[C@@H]3C[C@H]2CO3)C[C@H]1C (atropisomer, axis not shown) [Example 1334, (3S,10R)-3-(((1S,4S)-2-oxa-5-azabicyclo[2.2.1]heptan-5-yl)methyl)-7-((2S,5R)-4-acryloyl-2,5-dimethylpiperazin-1-yl)-10-(5-chloro-2,4-difluorophenyl)-9-(trifluoromethyl)-2,3-dihydro-5H-[1,4]thiazino[2,3,4-ij]quinazolin-5-one] |  |
